Our source for the EC50 values is US12679878B2, “CRF2 receptor agonists and their use in therapy” (SANOFI, priority 2020, dated 2026).

For this experiment, the target named is T1, human CRF2α receptor (Homo sapiens, UniProt Q13324).
T1 construct: expressed in transfected cells; host or cells: TeloHEAC
T1 sequence (Q13324 1-411): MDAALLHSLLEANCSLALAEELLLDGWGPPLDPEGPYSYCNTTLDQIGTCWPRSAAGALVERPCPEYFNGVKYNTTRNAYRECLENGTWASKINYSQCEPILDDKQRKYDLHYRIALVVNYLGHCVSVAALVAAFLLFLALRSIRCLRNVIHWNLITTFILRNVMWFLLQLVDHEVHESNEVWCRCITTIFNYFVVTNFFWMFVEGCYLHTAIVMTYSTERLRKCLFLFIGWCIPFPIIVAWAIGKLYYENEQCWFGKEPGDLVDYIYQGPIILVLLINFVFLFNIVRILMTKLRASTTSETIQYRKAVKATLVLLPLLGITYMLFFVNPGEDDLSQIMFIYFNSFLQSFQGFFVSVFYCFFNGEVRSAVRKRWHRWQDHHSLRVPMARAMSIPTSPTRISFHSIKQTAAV
In words: cAMP agonism at human CRF2 α receptor in TeloHEAC cells (Example 7). It counts as cell-based. Particulars: cAMP HTRF, TeloHEAC cells stably expressing human CRF2 α, 0% HSA; read-out: EC50 [nM], 0% HSA. As to the method:
Agonism of compounds for human corticotropin-releasing factor 2α (CRF2 α receptor) was determined by functional assays measuring CAMP response of a TeloHEAC cell line stably expressing human CRF2 α receptor.
Cells were grown in a T175 culture flask placed at 37° C. to near confluence in medium (DMEM/10% FBS) and collected in 2 ml vials in cell culture medium containing 10% DMSO in a concentration of 10-50 million cells/ml. Each vial contained 1.8 ml cells. The vials were slowly frozen to −80° C. in isopropanol and then transferred in liquid nitrogen for storage. Prior to use, frozen cells were thawed quickly at 37° C. and washed (5 min at 900 rpm) with 20 ml cell buffer (1×HBSS; 20 mM HEPES; 0% or 0.1% HSA). Cells were resuspended in assay buffer (cell buffer plus 2 mM IBMX) and adjusted to a cell density of 1 million cells/ml. For measurement, 5 μl cells (final […]) and 5 μL of test compound were added to a 384-well plate, followed by incubation for 30 minutes at room temperature.
The CAMP content of cells was determined using a kit from Cisbio Corp. (cat. no. 62AM4PEC) based on HTRF (Homogenous Time Resolved Fluorescence). After addition of HTRF reagents diluted in lysis buffer (kit components), the plates were incubated for 1 h, followed by measurement of the fluorescence ratio at 665/620 nm. The percent activity value (E %) was calculated by setting 1000 nM of urocortin 2 (UCN2) as 100%. The in vitro potency of the compounds was quantified by determining the concentrations that caused 50% activation of maximal response (EC50).
(TR-FRET usually uses a lanthanide donor and a delayed reading to cut background.)

Starred links: 1 amine or outer side, 2 acyl side, 3 side chain; linkers in the order of their positions; H or OH if unused. Non-standard residues stand in square brackets, D forms with d. Residues, ends and D or L forms follow the SMILES beside them. Groups on a side chain read outwards from the residue. *: point of attachment. C18 diacid = O=C(O)CCCCCCCCCCCCCCCCC(=O)*; γGlu = O=C(O)[C@H](CCC(=O)[*:2])N[*:1]; AEEA = NCCOCCOCC(=O)O; Aib = CC(C)(N)C(=O)O

Take `CC[C@H](C)[C@H](N)C(=O)N[C@H](C(=O)N[C@@H](CC(C)C)C(=O)N[C@@H](CO)C(=O)N[C@@H](CC(C)C)C(=O)N[C@@H](CC(=O)O)C(=O)N[C@H](C(=O)N1CCC[C@H]1C(=O)N[C@H](C(=O)N[C@@H](CCCCN)C(=O)N[C@@H](CC(C)C)C(=O)N[C@@H](CCCCNC(=O)COCCOCCNC(=O)COCCOCCNC(=O)CC[C@H](NC(=O)CCCCCCCCCCCCCCCCC(=O)O)C(=O)O)C(=O)N[C@@H](CCC(N)=O)C(=O)N[C@H](C(=O)N[C@@H](CC(C)C)C(=O)N[C@@H](CC(C)C)C(=O)N[C@@H](CCC(=O)O)C(=O)N[C@@H](CCC(N)=O)C(=O)N[C@@H](CCC(=O)O)C(=O)N[C@@H](CCCNC(=N)N)C(=O)N[C@@H](CCC(N)=O)C(=O)N[C@@H](CCCNC(=N)N)C(=O)NC(C)(C)C(=O)N[C@@H](CCC(=O)O)C(=O)N[C@@H](CCCNC(=N)N)C(=O)N[C@@H](CCC(N)=O)C(=O)N[C@@H](CCC(N)=O)C(=O)N[C@@H](C)C(=O)N[C@@H](CCC(=O)O)C(=O)N[C@@H](CCCCN)C(=O)N[C@@H](CC(N)=O)C(=O)N[C@H](C(=O)N[C@@H](CCCNC(=N)N)C(=O)N[C@H](C(=O)N[C@@H](CC(C)C)C(=O)N[C@@H](CCC(=O)O)C(=O)N[C@@H](CCCNC(=N)N)C(=O)N[C@H](C(N)=O)C(C)C)[C@@H](C)CC)C(C)C)[C@@H](C)CC)[C@@H](C)CC)C(C)C)C(C)C` [compound 42] (H-IVLSLDVPIKLK([AEEA-AEEA-γGlu-C18 diacid])QILLEQERQR[Aib]ERQQAEKNVRILERV-NH2): the concentration giving a half-maximal response (EC50) was found to be 15.4 nM. As for `CC[C@H](C)[C@H](N)C(=O)N[C@H](C(=O)N[C@@H](CC(C)C)C(=O)N[C@@H](CO)C(=O)N[C@@H](CC(C)C)C(=O)N[C@@H](CC(=O)O)C(=O)N[C@H](C(=O)N1CCC[C@H]1C(=O)N[C@H](C(=O)N[C@@H](CCCCN)C(=O)N[C@@H](CC(C)C)C(=O)N[C@@H](CCCCNC(=O)COCCOCCNC(=O)COCCOCCNC(=O)CC[C@H](NC(=O)CCCCCCCCCCCCCCCCC(=O)O)C(=O)O)C(=O)N[C@@H](CCC(N)=O)C(=O)N[C@H](C(=O)N[C@@H](CC(C)C)C(=O)N[C@@H](CC(C)C)C(=O)N[C@@H](CCC(=O)O)C(=O)N[C@@H](CCC(N)=O)C(=O)N[C@@H](C)C(=O)N[C@@H](CCCCN)C(=O)N[C@@H](CCC(N)=O)C(=O)N[C@@H](CCCCN)C(=O)N[C@@H](CCCCN)C(=O)N[C@@H](CCC(=O)O)C(=O)N[C@@H](CCCNC(=N)N)C(=O)N[C@@H](C)C(=O)N[C@@H](CCC(N)=O)C(=O)N[C@@H](C)C(=O)N[C@@H](CCC(=O)O)C(=O)N[C@H](C(=O)N[C@@H](CC(N)=O)C(=O)N[C@H](C(=O)N[C@@H](CCCNC(=N)N)C(=O)N[C@H](C(=O)N[C@@H](CC(C)C)C(=O)N[C@@H](CCC(=O)O)C(=O)N[C@@H](CCCNC(=N)N)C(=O)N[C@H](C(N)=O)C(C)C)[C@@H](C)CC)C(C)C)[C@@H](C)O)[C@@H](C)CC)[C@@H](C)CC)C(C)C)C(C)C` [compound 44] (H-IVLSLDVPIKLK([AEEA-AEEA-γGlu-C18 diacid])QILLEQAKQKKERAQAETNVRILERV-NH2), the EC50 was 13.7 nM.

The EC50 is the concentration at which the effect is half-maximal.
